Laboratory results published in paper PMC5394417, “Investigating the molecular mechanism of positive and negative allosteric modulators in the calcium-sensing receptor dimer” (Scientific Reports, 2017).
Values joined by “and” are separate entries in the source; they are usually repeats but may differ in a detail not shown here. Equal values may be shown once.

Assays:
[1] = biological target: T1, HA-S170A CaSR mutant (ATD mutant) (Rattus norvegicus, UniProt P48442, S170A); experiment: IP-One assay, HEK293T transiently transfected; type: cell-based
T1 construct: mGluR5 signal peptide (N); expressed in transfected cells; host or cells: HEK293T
T1 sequence (P48442 20-1079 S170A): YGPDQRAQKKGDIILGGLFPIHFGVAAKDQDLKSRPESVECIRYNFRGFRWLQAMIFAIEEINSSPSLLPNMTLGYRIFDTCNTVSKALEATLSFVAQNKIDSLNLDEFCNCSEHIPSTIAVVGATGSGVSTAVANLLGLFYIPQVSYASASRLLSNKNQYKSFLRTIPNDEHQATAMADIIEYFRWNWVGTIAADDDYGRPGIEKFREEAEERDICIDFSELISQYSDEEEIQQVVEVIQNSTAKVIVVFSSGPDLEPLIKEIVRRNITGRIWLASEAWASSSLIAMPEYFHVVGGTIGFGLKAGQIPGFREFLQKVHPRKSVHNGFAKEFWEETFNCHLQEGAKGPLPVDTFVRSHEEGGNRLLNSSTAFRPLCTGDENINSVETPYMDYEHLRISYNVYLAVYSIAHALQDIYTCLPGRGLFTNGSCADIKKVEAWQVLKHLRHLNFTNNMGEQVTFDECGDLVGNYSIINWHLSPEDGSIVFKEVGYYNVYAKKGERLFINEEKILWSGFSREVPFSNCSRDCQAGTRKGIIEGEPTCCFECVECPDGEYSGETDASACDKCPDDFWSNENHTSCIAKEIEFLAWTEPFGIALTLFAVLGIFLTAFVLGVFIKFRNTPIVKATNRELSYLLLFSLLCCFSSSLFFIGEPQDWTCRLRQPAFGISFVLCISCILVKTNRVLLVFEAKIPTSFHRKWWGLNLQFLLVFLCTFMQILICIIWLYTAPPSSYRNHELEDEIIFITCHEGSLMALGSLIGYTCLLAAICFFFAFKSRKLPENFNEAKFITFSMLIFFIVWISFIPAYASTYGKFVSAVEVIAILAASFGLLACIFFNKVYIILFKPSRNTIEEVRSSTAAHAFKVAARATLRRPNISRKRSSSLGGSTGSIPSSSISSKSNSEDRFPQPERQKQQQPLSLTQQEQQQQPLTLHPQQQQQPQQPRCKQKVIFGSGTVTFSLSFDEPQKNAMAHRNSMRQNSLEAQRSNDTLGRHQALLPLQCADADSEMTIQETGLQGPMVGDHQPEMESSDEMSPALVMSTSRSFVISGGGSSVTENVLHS
Experimental: (§1) Human embryonic kidney (HEK) 293T cells were cultured in DMEM supplemented with 10% dFBS and 1% P/S at 37 °C and 5% CO2. 48 h prior to assay, transient transfection was performed using Lipofectamine 2000 as the transfection reagent. White opaque 96-well culture plates (PerkinElmer, Waltham, MA, USA) were used for the ELISA and the TR-FRET dimerization assay, while clear tissue culture treated 96-well plates (Corning, Corning, NY, USA) were used for the IP-One assay. Both plate types were coated with poly-D-lysine before addition of cells and transfection mix. 0.25 μl/well of Lipofectamine 2000 were diluted in 25 μl/well of Opti-MEM and incubated at room temperature (RT) for 5 min. 0.03 μg/well of DNA was diluted in 25 μl/well of Opti-MEM, and subsequently mixed with the Lipofectamine 2000 dilution and incubated 20 min at RT before addition to the plates. Cell suspensions of 170.000 HEK293T cells/mL were prepared in complete growth medium and 100 μl/well (17.000 cells/well) was added to the plates, which were incubated for 48 h at 37 °C and 5% CO2 before performing assays.
(§2) Functional activity was measured using the IP-One assay, which is an IP1 accumulation assay. For agonist testing, ligands were prepared in final concentrations in ligand buffer (HBSS, 20 mM HEPES, pH 7.4 supplemented with 20 mM LiCl). Cells were washed once with 100 μl/well of assay buffer (HBSS, 20 mM HEPES, pH 7.4) and 50 μl/well of agonist solution was added after which plates were incubated at 37 °C for 30 min. Subsequently, ligand solutions were removed and cells were washed with 100 μl/well of assay buffer. Cell lysis was performed by addition of 30 μl/well of IP-One Conjugate & Lysis Buffer (Cisbio Bioassays, Codolet, France) and plates were incubated at RT for 30 min. Afterwards, 30 μl/well of assay buffer was added to dilute the cell lysate. 10 μl/well of cell lysate was transferred from the 96-well plate to a 384-well Optiplate and 10 μl/well of detection solution (Assay buffer + 2.5% of anti-IP1 antibody cryptate Terbium conjugate + 2.5% IP1-d2 conjugate (Cisbio Bioassays, Codolet, France)) was also added. The 384-well plate was incubated for 1 h at RT in dark before being measured on an EnVision plate reader (PerkinElmer, Waltham, MA, USA). Upon excitation at 340 nm, emission at 615 nm and 665 nm was measured, and the FRET ratio (665 nm/615 nm) was converted to IP1 concentrations by interpolating values from an IP1 standard curve generated from a provided IP1 calibrator (Cisbio Bioassays, Codolet, France). When testing allosteric modulators, cells were pre-incubated for 30 min at 37 °C with 50 μl/well of ligand buffer supplemented with allosteric modulator and a final concentration of 1% DMSO. Afterwards, the buffer solution was removed and 50 μl/well of agonist solution in ligand buffer supplemented with allosteric modulator and a final concentration of 1% DMSO was added. Plates were incubated for 30 min at 37 °C followed by one wash in 100 μl/well of assay buffer. Cell lysis and detection was performed as described above.

[2] = biological target: T2, S170A/E837A:F801A heterodimer (Rattus norvegicus, UniProt P48442, E837A/F801A/S170A); experiment: IP-One trans-activation assay, co-expression 1:1 in HEK293T; type: cell-based
T2 construct: mGluR5 signal peptide (N); expressed in transfected cells; host or cells: HEK293T
Experimental: as §1, §2

T2 sequence (P48442 20-1079 S170A/E837A): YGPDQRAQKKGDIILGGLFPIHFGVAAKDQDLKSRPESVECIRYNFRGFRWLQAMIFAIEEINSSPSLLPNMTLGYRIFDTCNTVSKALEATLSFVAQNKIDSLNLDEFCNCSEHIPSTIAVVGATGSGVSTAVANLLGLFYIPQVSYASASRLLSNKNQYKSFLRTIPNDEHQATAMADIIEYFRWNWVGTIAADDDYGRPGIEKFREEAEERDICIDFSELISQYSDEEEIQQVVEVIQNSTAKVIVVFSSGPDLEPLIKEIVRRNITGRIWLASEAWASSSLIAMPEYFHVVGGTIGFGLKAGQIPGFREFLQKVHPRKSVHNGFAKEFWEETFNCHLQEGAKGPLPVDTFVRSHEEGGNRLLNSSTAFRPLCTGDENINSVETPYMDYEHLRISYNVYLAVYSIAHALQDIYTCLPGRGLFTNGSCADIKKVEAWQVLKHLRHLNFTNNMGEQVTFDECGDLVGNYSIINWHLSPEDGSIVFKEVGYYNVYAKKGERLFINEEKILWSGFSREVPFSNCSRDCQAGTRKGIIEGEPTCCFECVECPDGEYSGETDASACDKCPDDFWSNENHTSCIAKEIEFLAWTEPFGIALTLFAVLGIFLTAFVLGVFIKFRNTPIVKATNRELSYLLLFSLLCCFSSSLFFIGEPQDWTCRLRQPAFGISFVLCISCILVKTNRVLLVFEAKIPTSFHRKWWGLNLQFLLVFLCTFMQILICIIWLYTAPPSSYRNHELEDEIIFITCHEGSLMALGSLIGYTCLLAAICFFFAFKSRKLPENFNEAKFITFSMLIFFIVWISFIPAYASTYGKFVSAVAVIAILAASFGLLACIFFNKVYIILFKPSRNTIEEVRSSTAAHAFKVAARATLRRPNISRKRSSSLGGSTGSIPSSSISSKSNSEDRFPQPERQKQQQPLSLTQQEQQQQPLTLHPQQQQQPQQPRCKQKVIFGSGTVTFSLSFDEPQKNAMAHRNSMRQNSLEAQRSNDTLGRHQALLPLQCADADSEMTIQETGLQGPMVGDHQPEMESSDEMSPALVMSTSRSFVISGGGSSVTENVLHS
T2 sequence (P48442 20-1079 F801A): as the sequence (P48442 20-1079 S170A/E837A) above, with A151S, F782A, A818E counted along it

EC50 ([1]; HA-S170A, Ca^2+ alone) | Max ± S.E.M. ([1]; HA-S170A, normalized to maximum response of WT CaSR, at highest tested Ca^2+ concentration) | potentiation of Ca^2+-mediated response ([1]; S170A co-expressed with pEGFPN1, 23 mM Ca^2+, 0.05, 0.1 and 1 μM NPS R-568) | potentiation of Ca^2+-mediated response ([2]; S170A/E837A:F801A heterodimer, 0.05, 0.1 and 1 μM NPS R-568) | effect on Ca^2+-mediated response ([2]; S170A/E837A:F801A heterodimer, highest tested concentration of NPS R-568 (1 μM)) | SMILES
> 45 mM | 17% and 17 ± 0.7% | – | – | – | [Ca+2] [Ca^2+]
– | – | concentration-dependent potentiation | no potentiation was observed | inhibited | COc1cccc([C@@H](C)NCCCc2ccccc2Cl)c1.Cl [NPS R-568, NPS R-568 hydrochloride]
